The subject of test [1] is Pu24T (c-myc G-quadruplex DNA) (DNA, G4) TGAGGGTGGTGAGGGTGGGGAAGG
The test is described as follows: ligand fluorescence titration. The note with it: 100 mM KCl, 10 mM potassium phosphate; pH 7.0, 25 °C; site 1 of 2.

Test [2] shares this test system. Nature of the test: ITC. The note with it: 100 mM KCl, 10 mM potassium phosphate; pH 7.0, 25 °C; site 1 of 2.
Test [3] concerns Tel7, d-(T2AG3T)4 (DNA, G4) TTAGGGT. Nature of the test: ligand fluorescence titration. To be noted: 70 mM Na+; 25 °C.
Test [4] relates to c-kit21up (c-kit G-quadruplex DNA) (DNA, G4) CGGGCGGGCGCGAGGGAGGGG
Nature of the test: ligand fluorescence titration. The note with it: 100 mM KCl, 10 mM potassium phosphate; pH 7.0, 25 °C.

For test [5], the system named is Pu24T (c-myc G-quadruplex DNA) (DNA, G4) TGAGGGTGGTGAGGGTGGGGAAGG
The test is described as follows: NMR solution structure (NOESY, restrained MD). The note with it: 298 K; D/N = 2.0; stacks at 5' and 3' G-tetrads.

The test system is the same in test [6]. The test is described as follows: UV melting at 295 nm. The note with it: 100 mM KCl, 10 mM potassium phosphate; pH 7.0; D/N = 2.0; Tm 70.0 to 80.0 °C.

A word on the ΔTm: it is the shift of the melting midpoint relative to a reference.

Regarding `COc1ccc([C@@H]2CC(=O)c3c(O)cc(O[C@@H]4O[C@H](CO[C@@H]5O[C@@H](C)[C@H](O)[C@@H](O)[C@H]5O)[C@@H](O)[C@H](O)[C@H]4O)cc3O2)cc1O`, the Kd1 in test [1] was determined as 1 µM. The K1 in test [2] is 7.35×10^5 ± 1.06 M^-1.

In the case of `C[C@@H]1O[C@@H](OC[C@H]2O[C@@H](Oc3c(-c4ccc(O)c(O)c4)oc4cc(O)cc(O)c4c3=O)[C@H](O)[C@@H](O)[C@@H]2O)[C@H](O)[C@H](O)[C@H]1O`, the Kd1 in test [1] was 17.1 µM. In addition, in test [2], the K1 was 7.23 × 10^5 ± 8.60 M-1.

`O=c1c(-c2ccc(O)cc2)coc2c([C@@H]3O[C@H](CO)[C@@H](O)[C@H](O)[C@H]3O)c(O)ccc12` displayed a Kd1 in test [1] of 88.8 µM. In addition, the K1 in test [2] was 1.10×10^4 ± 7.75 M^-1.

Take `O=c1c(-c2ccc(O)cc2)coc2cc(O)ccc12`: in test [1], the Kd1 was 47 µM. Also, in test [2], the K1 is listed as 3.34×10^5 ± 1.50 M^-1.

`O=c1c(O)c(-c2cc(O)c(O)c(O)c2)oc2cc(O)cc(O)c12` yielded a Kd1 in test [1] of 1.4 µM. Also, the K1 in test [2] is 1.65×10^5 ± 0 M^-1.

As to `O=c1c(O)c(-c2ccc(O)c(O)c2)oc2cc(O)cc(O)c12`, the Kd1 in test [3] came to 2.13 µM; in test [4] it was 1.12 µM. In addition, the binding entry in test [5] is listed as “yes”. Besides, the K1 in test [2] is reported as 1.57 × 10^7 ± 2.14 M-1. Also, the ΔTm in test [6] was 10 °C.

`O=c1c(O)c(-c2ccc(O)cc2)oc2cc(O)cc(O)c12` returned a Kd1 in test [1] of 1.3 µM.

Compound `O=c1cc(-c2ccc(O)c(O)c2)oc2cc(O)cc(O)c12` registered a Kd1 in test [1] of 1.5 µM.

Source of the values: article PMC5472631 (2017).
